Nine molecules from BindingDB's records for doi:10.1016/j.bmcl.2009.07.083 (Bristol-Myers Squibb, 2009) can be followed below.

The test has as its target Potassium voltage-gated channel subfamily A member 5 (Homo sapiens, UniProt P22460). In words: Inhibition of human Kv1.5 channel expressed in mouse L929 cells.

Bounds are passed on as bounds.

Potassium voltage-gated channel subfamily A member 5, sequence (P22460 whole entry): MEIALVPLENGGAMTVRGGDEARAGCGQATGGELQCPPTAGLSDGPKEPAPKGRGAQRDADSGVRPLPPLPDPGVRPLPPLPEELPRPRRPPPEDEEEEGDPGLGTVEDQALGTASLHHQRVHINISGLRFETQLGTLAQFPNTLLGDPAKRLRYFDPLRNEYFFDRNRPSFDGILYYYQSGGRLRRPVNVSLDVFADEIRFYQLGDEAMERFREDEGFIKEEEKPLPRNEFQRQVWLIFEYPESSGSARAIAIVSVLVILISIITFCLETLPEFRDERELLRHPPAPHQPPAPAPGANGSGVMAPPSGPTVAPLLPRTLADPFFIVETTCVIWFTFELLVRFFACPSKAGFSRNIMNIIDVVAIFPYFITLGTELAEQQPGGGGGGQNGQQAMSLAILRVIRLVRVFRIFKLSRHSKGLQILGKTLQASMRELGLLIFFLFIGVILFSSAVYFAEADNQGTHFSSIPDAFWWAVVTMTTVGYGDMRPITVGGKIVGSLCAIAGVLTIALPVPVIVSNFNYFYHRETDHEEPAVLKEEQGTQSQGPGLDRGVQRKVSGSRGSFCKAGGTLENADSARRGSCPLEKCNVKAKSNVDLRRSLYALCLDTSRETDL

`CC1=Nc2ccnn2C(c2ccc(Cl)c(Cl)c2)C1c1nc2cc(S(=O)(=O)Nc3ccccc3)ccc2n1C` (centres undefined) [2-(7-(3,4-dichlorophenyl)-5-methyl-4,7-dihydropyrazolo[1,5-a]pyrimidin-6-yl)-1-methyl-N-phenyl-1H-benzo[d]imidazole-5-sulfonamide]: the IC50 is > 1000 nM.
Turning to `CC1=Nc2ccnn2C(c2ccc(Cl)c(Cl)c2)C1c1nnc(-c2ccccc2)o1` (centres undefined) [2-(7-(3,4-dichlorophenyl)-5-methyl-4,7-dihydropyrazolo[1,5-a]pyrimidin-6-yl)-5-phenyl-1,3,4-oxadiazole], the IC50 is > 1000 nM.
As to `CC1=Nc2ccnn2C(c2ccc(Cl)c(Cl)c2)C1c1ncc(-c2ccccc2)o1` (centres undefined) [2-(7-(3,4-dichlorophenyl)-5-methyl-4,7-dihydropyrazolo[1,5-a]pyrimidin-6-yl)-5-phenyloxazole], the IC50 was > 1000 nM.
Turning to `CCCCc1nnc(C2C(C)=Nc3ccnn3C2c2ccc(Cl)c(Cl)c2)o1` (centres undefined) [2-butyl-5-(7-(3,4-dichlorophenyl)-5-methyl-4,7-dihydropyrazolo[1,5-a]pyrimidin-6-yl)-1,3,4-oxadiazole], the IC50 is > 1000 nM.
The figure for `CC1=Nc2ccnn2C(c2ccc(Cl)c(Cl)c2)C1c1nc2cc(S(C)(=O)=O)ccc2n1C` (centres undefined) [7-(3,4-dichlorophenyl)-5-methyl-6-(1-methyl-5-(methylsulfonyl)-1H-benzo[d]imidazol-2-yl)-4,7-dihydropyrazolo[1,5-a]pyrimidine] is > 1000 nM; for `CC1=Nc2ccnn2C(c2ccc(Cl)c(Cl)c2)C1c1nc2c(C)cccc2[nH]1` (centres undefined) [7-(3,4-dichlorophenyl)-5-methyl-6-(7-methyl-1H-benzo[d]imidazol-2-yl)-4,7-dihydropyrazolo[1,5-a]pyrimidine] it is 150 nM; for `CC1=Nc2ccnn2C(c2ccc(Cl)c(Cl)c2)C1c1nc2cc(C)ccc2n1C` (centres undefined) [7-(3,4-dichlorophenyl)-6-(1,5-dimethyl-1H-benzo[d]imidazol-2-yl)-5-methyl-4,7-dihydropyrazolo[1,5-a]pyrimidine] it is 200 nM.
Regarding `CC1=Nc2ccnn2C(c2ccc(Cl)c(Cl)c2)C1c1nc2cccc(F)c2n1C` (centres undefined) [7-(3,4-dichlorophenyl)-6-(7-fluoro-1-methyl-1H-benzo[d]imidazol-2-yl)-5-methyl-4,7-dihydropyrazolo[1,5-a]pyrimidine], the IC50 stood at 150 nM.
As to `CC(=O)Nc1ccc2c(c1)nc(C1C(C)=Nc3ccnn3C1c1ccc(Cl)c(Cl)c1)n2C` (centres undefined) [N-(2-(7-(3,4-dichlorophenyl)-5-methyl-4,7-dihydropyrazolo[1,5-a]pyrimidin-6-yl)-1-methyl-1H-benzo[d]imidazol-5-yl)acetamide], the IC50 is > 1000 nM.

In general, IC50 refers to the concentration that gives 50% inhibition. Higher therefore signals weaker potency.
